# Experimental data published in US20140323300A1, “HERBICIDAL COMPOUNDS” (SYNGENTA LIMITED, priority 2011, published 2014).
# Columns and labels:
# Format in all cases: in vivo
# [1] = test system: Alopecurus myosuroides (ALOMY); experiment: Post-emergence glasshouse herbicide test; details: post-emergence (sprayed after 8 days cultivation), 1000 g/h, evaluated after 13 days, five point scale
# Procedure: (§1) Seeds of a variety of test species are sown in standard soil in pots (Alopecurus myosuroides (ALOMY), Setaria faberi (SETFA), Echinochloa crus-galli (ECHCG), Solanum nigrum (SOLNI), Amaranthus retoflexus (AMARE), Ipomoea hederacea (IPOHE)). After cultivation for one day (pre-emergence) or after 8 days cultivation (post-emergence) under controlled conditions in a glasshouse (at 24/16° C., day/night; 14 hours light; 65% humidity), the plants are sprayed with an aqueous spray solution derived from the formulation of the technical active ingredient in acetone/water (50:50) solution containing 0.5% Tween 20 (polyoxyethelyene sorbitan monolaurate, CAS RN 9005-64-5). Compounds are applied at 1000 g/h. The test plants are then grown in a glasshouse under controlled conditions in a glasshouse (at 24/16° C., day/night; 14 hours light; 65% humidity) and watered twice daily. After 13 days for pre and post-emergence, the test is evaluated for the percentage damage caused to the plant. The biological activities are shown in the following table on a five point scale (5=80-100%; 4=60-79%; 3=40-59%; 2=20-39%; 1=0-19%).
# [2] = test system: Echinochloa crus-galli (ECHCG); experiment: Post-emergence glasshouse herbicide test; details: post-emergence (sprayed after 8 days cultivation), 1000 g/h, evaluated after 13 days, five point scale
# Procedure: as §1
# [3] = test system: Setaria faberi (SETFA); experiment: Post-emergence glasshouse herbicide test; details: post-emergence (sprayed after 8 days cultivation), 1000 g/h, evaluated after 13 days, five point scale
# Procedure: as §1
# [4] = test system: Ipomoea hederacea (IPOHE); experiment: Post-emergence glasshouse herbicide test; details: post-emergence (sprayed after 8 days cultivation), 1000 g/h, evaluated after 13 days, five point scale
# Procedure: as §1
# [5] = test system: Amaranthus retoflexus (AMARE); experiment: Post-emergence glasshouse herbicide test; details: post-emergence (sprayed after 8 days cultivation), 1000 g/h, evaluated after 13 days, five point scale
# Procedure: as §1
# [6] = test system: Solanum nigrum (SOLNI); experiment: Post-emergence glasshouse herbicide test; details: post-emergence (sprayed after 8 days cultivation), 1000 g/h, evaluated after 13 days, five point scale
# Procedure: as §1
# [7] = test system: Alopecurus myosuroides (ALOMY); experiment: Pre-emergence glasshouse herbicide test; details: pre-emergence (sprayed after one day cultivation), 1000 g/h, evaluated after 13 days, five point scale
# Procedure: as §1
# [8] = test system: Echinochloa crus-galli (ECHCG); experiment: Pre-emergence glasshouse herbicide test; details: pre-emergence (sprayed after one day cultivation), 1000 g/h, evaluated after 13 days, five point scale
# Procedure: as §1
# [9] = test system: Setaria faberi (SETFA); experiment: Pre-emergence glasshouse herbicide test; details: pre-emergence (sprayed after one day cultivation), 1000 g/h, evaluated after 13 days, five point scale
# Procedure: as §1
# [10] = test system: Ipomoea hederacea (IPOHE); experiment: Pre-emergence glasshouse herbicide test; details: pre-emergence (sprayed after one day cultivation), 1000 g/h, evaluated after 13 days, five point scale
# Procedure: as §1
# [11] = test system: Amaranthus retoflexus (AMARE); experiment: Pre-emergence glasshouse herbicide test; details: pre-emergence (sprayed after one day cultivation), 1000 g/h, evaluated after 13 days, five point scale
# Procedure: as §1
# [12] = test system: Solanum nigrum (SOLNI); experiment: Pre-emergence glasshouse herbicide test; details: pre-emergence (sprayed after one day cultivation), 1000 g/h, evaluated after 13 days, five point scale
# Procedure: as §1
SMILES,"percentage damage caused to the plant, POST Application ALOMY [1]","percentage damage caused to the plant, POST Application ECHCG [2]","percentage damage caused to the plant, POST Application SETFA [3]","percentage damage caused to the plant, POST Application IPOHE [4]","percentage damage caused to the plant, POST Application AMARE [5]","percentage damage caused to the plant, POST Application SOLNI [6]","percentage damage caused to the plant, PRE Application ALOMY [7]","percentage damage caused to the plant, PRE Application ECHCG [8]","percentage damage caused to the plant, PRE Application SETFA [9]","percentage damage caused to the plant, PRE Application IPOHE [10]","percentage damage caused to the plant, PRE Application AMARE [11]","percentage damage caused to the plant, PRE Application SOLNI [12]"
Cc1c(-n2ncc(C#N)c(O)c2=O)ccc(S(C)(=O)=O)c1C1=NOCC1 [Compound 1.009],1 (1=0-19%),5 (5=80-100%),5 (5=80-100%),5 (5=80-100%),5 (5=80-100%),5 (5=80-100%),1 (1=0-19%),5 (5=80-100%),4 (4=60-79%),4 (4=60-79%),5 (5=80-100%),4 (4=60-79%)
CS(=O)(=O)c1cc(C(F)(F)F)ccc1-n1ncc(Cl)c(O)c1=O [Compound 1.003],5 (5=80-100%),5 (5=80-100%),5 (5=80-100%),5 (5=80-100%),5 (5=80-100%),5 (5=80-100%),5 (5=80-100%),5 (5=80-100%),5 (5=80-100%),5 (5=80-100%),5 (5=80-100%),5 (5=80-100%)
O=c1c(O)c(Cl)cnn1-c1ccc(C(F)(F)F)cc1C(F)(F)F [Compound 1.015],5 (5=80-100%),5 (5=80-100%),5 (5=80-100%),5 (5=80-100%),5 (5=80-100%),5 (5=80-100%),1 (1=0-19%),2 (2=20-39%),1 (1=0-19%),4 (4=60-79%),5 (5=80-100%),5 (5=80-100%)
CS(=O)(=O)c1cc(C(F)(F)F)ccc1-n1ncc(C2CC2)c(O)c1=O [Compound 1.031],5 (5=80-100%),5 (5=80-100%),5 (5=80-100%),5 (5=80-100%),5 (5=80-100%),5 (5=80-100%),5 (5=80-100%),5 (5=80-100%),5 (5=80-100%),5 (5=80-100%),5 (5=80-100%),5 (5=80-100%)
Cc1c(-n2ncc(C#N)c(O)c2=O)ccc(S(C)(=O)=O)c1C1=NOCC1 [Compound 1.026],1 (1=0-19%),5 (5=80-100%),5 (5=80-100%),5 (5=80-100%),5 (5=80-100%),5 (5=80-100%),1 (1=0-19%),5 (5=80-100%),5 (5=80-100%),5 (5=80-100%),5 (5=80-100%),5 (5=80-100%)
CCc1cnn(-c2ccc(S(C)(=O)=O)c(C3=NOCC3)c2C)c(=O)c1O [Compound 1.005],5 (5=80-100%),5 (5=80-100%),5 (5=80-100%),5 (5=80-100%),5 (5=80-100%),5 (5=80-100%),4 (4=60-79%),4 (4=60-79%),2 (2=20-39%),4 (4=60-79%),5 (5=80-100%),5 (5=80-100%)
CCc1cnn(-c2ccc(C(F)(F)F)nc2S(C)(=O)=O)c(=O)c1O [Compound 1.036],5 (5=80-100%),5 (5=80-100%),5 (5=80-100%),5 (5=80-100%),5 (5=80-100%),5 (5=80-100%),5 (5=80-100%),5 (5=80-100%),5 (5=80-100%),5 (5=80-100%),5 (5=80-100%),5 (5=80-100%)
